Results on 11 compounds are retold here after ChEMBL document CHEMBL1135182, “Synthesis and anti-influenza evaluation of polyvalent sialidase inhibitors bearing 4-guanidino-Neu5Ac2en derivatives” (Bioorg Med Chem Lett, 2002).

The subject of test [1] is Influenza A virus. As to the kind of experiment: Inhibitory concentration by Plaque reduction assay. Type of test: functional, organism-based.
Test [2] is filed under the species Mus musculus. As to the kind of experiment: Number of survivors out of 7 tested mice at 10 days after infection with influenza A/PR/8/34 (H1N1) virus. The class given is functional.
Test [3] is filed under the species Mus musculus. As to the kind of experiment: Number of survivors out of 7 tested mice at 20 days after infection with influenza A/PR/8/34 (H1N1) virus. Type of test: functional.
Test [4] deals with Influenza A virus. Description: Inhibitory concentration by Sialidase inhibitory assay. Type of test: functional, organism-based.
The species entered for test [5] is Mus musculus. Description: Number of survivors out of 8 tested mice at 10 days after infection with influenza A/PR/8/34 (H1N1) virus. Type of test: functional.
For test [6], the species on record is Mus musculus. As to the kind of experiment: Number of survivors out of 8 tested mice at 20 days after infection, with influenza A/PR/8/34 (H1N1) virus. Type of test: functional.

In brackets after ≈: the same amount, converted by molar mass. Non-standard residues stand in square brackets, D forms with d. Residues, ends and D or L forms follow the SMILES beside them. ξ: configuration not given here. *: point of attachment. X3 = CC(=O)N[C@H]1[C@H]([C@H](OCCCCCN*)[C@H](O)CO)OC(C(=O)O)=C[C@@H]1NC(=N)N; X4 = CC(=O)N[C@H]1[C@H]([C@H](OCCCCCN*)[C@H](O)CO)OC(C(=O)O)=C[C@@H]1N=C(N)N; X1 = CC(=O)N[C@H]1[C@H]([C@H](OCCN*)[C@H](O)CO)OC(C(=O)O)=C[C@@H]1NC(=N)N; X2 = CC(=O)N[C@H]1[C@H]([C@H](OCCN*)[C@H](O)CO)OC(C(=O)O)=C[C@@H]1N=C(N)N; ξE = NC(CCC(=O)O)C(=O)O; NHBn = c1ccc(CN*)cc1; NHPentyl = CCCCCN*

As usually defined, the IC50 is the midpoint of a concentration-inhibition curve. High values mean weaker potency, low ones greater potency. For the compound `CC(=O)N[C@H]1[C@H]([C@H](OCCCCCNC(=O)CCC(N)C(=O)N[C@@H](CCC(N)=O)C(=O)N[C@@H](CCC(N)=O)C(=O)N[C@@H](CCC(N)=O)C(=O)CN[C@@H](CCC(N)=O)C(=O)N[C@@H](CCC(N)=O)C(=O)N[C@@H](CCC(N)=O)C(=O)N[C@@H](CCC(N)=O)C(=O)N[C@@H](CCC(N)=O)C(=O)N[C@@H](CCC(N)=O)C(=O)N[C@@H](CCC(N)=O)C(N)=O)[C@H](O)CO)OC(C(=O)O)=C[C@@H]1NC(=N)N` (some centres undefined), the values for the IC50 in the test on Influenza A virus [1] and in the test on Influenza A virus [4] were 0.072 ng/mL (≈ 0.0391 nM) and 161 ng/mL (≈ 87.5 nM), respectively. Besides, the Survival rate in the test listed under Mus musculus [2] and in the test listed under Mus musculus [3] was 7 each time.

In the case of `CC(=O)NCCO[C@@H]([C@@H]1OC(C(=O)O)=C[C@H](N=C(N)N)[C@H]1NC(C)=O)[C@H](O)CO`, the IC50 stood at 5.5 ng/mL (≈ 13.2 nM) in the test with Influenza A virus [1] and 22 ng/mL (≈ 52.7 nM) in the test on Influenza A virus [4].

For `CC(=O)N[C@H]1[C@H]([C@H](OCCCCCCCCCCNC(=O)CCC(N)C(=O)N[C@@H](CCC(N)=O)C(=O)N[C@@H](CCC(N)=O)C(=O)N[C@@H](CCC(N)=O)C(=O)CN[C@@H](CCC(N)=O)C(=O)N[C@@H](CCC(N)=O)C(=O)N[C@@H](CCC(N)=O)C(=O)N[C@@H](CCC(N)=O)C(=O)N[C@@H](CCC(N)=O)C(=O)N[C@@H](CCC(N)=O)C(=O)N[C@@H](CCC(N)=O)C(N)=O)[C@H](O)CO)OC(C(=O)O)=C[C@@H]1NC(=N)N` (some centres undefined), the values for the half-maximal inhibitory concentration (IC50) with Influenza A virus [1] and with Influenza A virus [4] were 2.1 ng/mL (≈ 1.1 nM) and 62 ng/mL (≈ 32.4 nM), respectively.

`CC(=O)NCCCCCO[C@@H]([C@@H]1OC(C(=O)O)=C[C@H](N=C(N)N)[C@H]1NC(C)=O)[C@H](O)CO`: the IC50 in the test on Influenza A virus [1] worked out at 5.9 ng/mL (≈ 12.8 nM); with Influenza A virus [4], 90 ng/mL (≈ 196 nM).

For `CC(=O)N[C@H]1[C@H]([C@H](OCCNC(=O)CCC(N)C(=O)N[C@@H](CCC(N)=O)C(=O)N[C@@H](CCC(N)=O)C(=O)N[C@@H](CCC(N)=O)C(=O)CN[C@@H](CCC(N)=O)C(=O)N[C@@H](CCC(N)=O)C(=O)N[C@@H](CCC(N)=O)C(=O)N[C@@H](CCC(N)=O)C(=O)N[C@@H](CCC(N)=O)C(=O)N[C@@H](CCC(N)=O)C(=O)N[C@@H](CCC(N)=O)C(N)=O)[C@H](O)CO)OC(C(=O)O)=C[C@@H]1NC(=N)N` (some centres undefined), the figures for the IC50 with Influenza A virus [1] and in the test on Influenza A virus [4] were 0.066 ng/mL (≈ 0.0367 nM) and 114 ng/mL (≈ 63.4 nM), respectively.

On to `CC(=O)N[C@H]1[C@H]([C@H](OCCNC(=O)CC[C@H](NC(=O)[C@H](CCC(=O)NCc2ccccc2)NC(=O)[C@H](CCC(=O)NCc2ccccc2)NC(=O)[C@H](CCC(=O)NCc2ccccc2)NC(=O)[C@@H](N)CCC(=O)NCc2ccccc2)C(=O)N[C@@H](CCC(N)=O)C(=O)N[C@@H](CCC(N)=O)C(=O)N[C@@H](CCC(N)=O)C(=O)N[C@@H](CCC(N)=O)C(=O)N[C@@H](CCC(N)=O)C(=O)N[C@@H](CCC(N)=O)C(=O)N[C@@H](CCC(N)=O)C(N)=O)[C@H](O)CO)OC(C(=O)O)=C[C@@H]1NC(=N)N` (H-E(NHBn)E(NHBn)E(NHBn)E(NHBn)E(X1)QQQQQQQ-NH2), for which the IC50 in the test on Influenza A virus [1] was 0.15 ng/mL (≈ 0.066 nM); in the test on Influenza A virus [4] it was 324 ng/mL (≈ 143 nM).

As to `CC(=O)N[C@H]1[C@H]([C@H](OCCCCCNC(=O)CC[C@H](NC(=O)[C@H](CCC(=O)NCc2ccccc2)NC(=O)[C@@H](N)CCC(=O)NCc2ccccc2)C(=O)N[C@@H](CCC(N)=O)C(=O)N[C@@H](CCC(N)=O)C(=O)N[C@@H](CCC(N)=O)C(=O)N[C@@H](CCC(N)=O)C(=O)N[C@@H](CCC(N)=O)C(=O)N[C@@H](CCC(N)=O)C(=O)N[C@@H](CCC(N)=O)C(=O)N[C@@H](CCC(N)=O)C(N)=O)[C@H](O)CO)OC(C(=O)O)=C[C@@H]1NC(=N)N` (H-E(NHBn)E(NHBn)E(X3)QQQQQQQQ-NH2), the figures for the half-inhibitory concentration (IC50) in the test with Influenza A virus [1] and with Influenza A virus [4] were 0.028 ng/mL (≈ 0.014 nM) and 63 ng/mL (≈ 31.4 nM), respectively.

On to `CCCCCNC(=O)CC[C@H](NC(=O)[C@H](CCC(=O)NCCCCC)NC(=O)[C@H](CCC(=O)NCCCCC)NC(=O)[C@@H](N)CCC(=O)NCCCCC)C(=O)N[C@@H](CCC(=O)NCCO[C@@H]([C@@H]1OC(C(=O)O)=C[C@H](N=C(N)N)[C@H]1NC(C)=O)[C@H](O)CO)C(=O)N[C@@H](CCC(N)=O)C(=O)N[C@@H](CCC(N)=O)C(=O)N[C@@H](CCC(N)=O)C(=O)N[C@@H](CCC(N)=O)C(=O)N[C@@H](CCC(N)=O)C(=O)N[C@@H](CCC(N)=O)C(=O)N[C@@H](CCC(N)=O)C(N)=O` (H-E(NHPentyl)E(NHPentyl)E(NHPentyl)E(NHPentyl)E(X2)QQQQQQQ-NH2), for which the IC50 stood at 0.1 ng/mL (≈ 0.0456 nM) with Influenza A virus [1] and 585 ng/mL (≈ 267 nM) in the test on Influenza A virus [4].

`CCCCCNC(=O)CC[C@H](NC(=O)[C@@H](N)CCC(=O)NCCCCC)C(=O)N[C@@H](CCC(=O)NCCCCCO[C@@H]([C@@H]1OC(C(=O)O)=C[C@H](N=C(N)N)[C@H]1NC(C)=O)[C@H](O)CO)C(=O)N[C@@H](CCC(N)=O)C(=O)N[C@@H](CCC(N)=O)C(=O)N[C@@H](CCC(N)=O)C(=O)N[C@@H](CCC(N)=O)C(=O)N[C@@H](CCC(N)=O)C(=O)N[C@@H](CCC(N)=O)C(=O)N[C@@H](CCC(N)=O)C(=O)N[C@@H](CCC(N)=O)C(N)=O` (H-E(NHPentyl)E(NHPentyl)E(X4)QQQQQQQQ-NH2): the figures for the IC50 with Influenza A virus [1] and in the test on Influenza A virus [4] were 0.32 ng/mL (≈ 0.163 nM) and 113 ng/mL (≈ 57.4 nM), respectively.

Consider `CC(=O)N[C@H]1[C@H]([C@H](OCCNC(=O)CCC(N)C(=O)N[C@@H](CCC(N)=O)C(=O)N[C@@H](CCC(N)=O)C(=O)N[C@@H](CCC(N)=O)C(N)=O)[C@H](O)CO)OC(C(=O)O)=C[C@@H]1NC(=N)N` (some centres undefined) (H-[ξE](X1)QQQ-NH2), for which the IC50 in the test on Influenza A virus [1] came to 0.17 ng/mL (≈ 0.191 nM); in the test on Influenza A virus [4], 364 ng/mL (≈ 410 nM).

As to `CC(=O)N[C@H]1[C@H]([C@H](O)[C@H](O)CO)OC(C(=O)O)=C[C@@H]1NC(=N)N` [ZANAMIVIR], the Survival rate in the test listed under Mus musculus [5] came to 1; in the test filed under Mus musculus [6], 0.
